The IC50 is the point on the concentration scale where inhibition reaches its midpoint.

Results on four compounds are retold here after patent US5594009A, “Fused pyrrolocarbazoles” (priority 1995, dated 1997).

Assay [1] relates to choline acetyltransferase (ChAT) activity in dissociated rat embryonic spinal cord culture. Put plainly: Spinal Cord ChAT Activity Assay. The assay is classed as cell-based. The conditions noted are these: ChAT measured after 48 hours.
In assay [2] the test system is ChAT activity of basal forebrain cultures. Nature of the assay: Basal Forebrain ChAT Activity Assay. The assay is classed as cell-based, rat. The conditions noted are these: Rattus norvegicus, 120 h, read-out: ChAT Activity (% of Control). The procedure, abridged:
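Basal forebrain neurons from E17–18 rat embryos were Dispase-dissociated and plated at 5×10^4 cells/well on poly-ornithine/laminin. Cultures were kept in serum-free N2 medium with 0.05% BSA at 37° C. ChAT activity was measured 5 days after plating as the read-out for compound-induced increase.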

The next assay has as its target protein kinase C. Nature of the assay: PKC Activity Inhibition Assay. In kind it is biochemical. On the procedure:
Fused pyrrolocarbazoles inhibited the activity of protein kinase C (Table VI). The protein kinase C assay has been disclosed (Murakata et al., U.S. Pat. No. 4,923,986; Kikkawa et al., J. Biol. Chem. 257:13341-13348 (1982)). The assay was performed with several concentrations of fused pyrrolocarbazoles. The concentration at which protein kinase C was 50% inhibited (IC50) was determined.

A further assay concerns the target trkA tyrosine kinase (Homo sapiens, UniProt P04629). Put plainly: trkA Tyrosine Kinase Activity Inhibition Assay (ELISA). The conditions noted are these: 16 μM ATP, 37° C., 15 min; read-out: INHIBITION OF trkA KINASE IC50. The assay is classed as biochemical. In general terms: An ELISA detects its analyte on a solid surface through an enzyme-linked reagent.
The subject of assay [3] is indoleamine 2,3-dioxygenase (IDO) mRNA in THP-1 cells. Nature of the assay: Inhibition of Induction By IFNγ of IDO mRNA. The assay is classed as cell-based. To be noted: Homo sapiens, IDO/GAPD mRNA ratio, 48 hours, read-out: IDO mRNA, Phosphorimager units, % of IFNγ-treated cells; for mrna remaining at 0.4 µM: compound 400 nM, IFNγ 400 units/ml. On the procedure: Fused pyrrolocarbazoles in accordance with our invention were tested for their ability to inhibit the induction by IFNγ of indoleamine 2,3-dioxygenase (IDO) mRNA in THP-1 cells, a human monocyte cell line.
Cell Culture: THP-1 cells (American Type Culture Collection, Rockville, Md.), a human monocytic leukemia cell line, were grown in RPMI 1640 medium (Mediatech, Herndon Valley, Va.) with 50 μM 2-mercaptoethanol and 10% fetal bovine serum. Cells were plated in T75 culture flasks, at 4×10^4 cells/cm^2 in 10 ml of medium, and were immediately treated with fused pyrrolocarbazoles at various concentrations. After 30 minutes recombinant (E. coli) IFNγ (Boehringer Mannheim Corporation,Indianapolis, Ind.) was added at 200-400 units/ml. Cells were incubated (37° C., 5% CO2 /95% Air) for 48 hours after treatment.
RNA Isolation: Cells were pelleted by centrifugation (50× g, 7 min.) and medium was decanted. The cells were then washed two times with phosphate buffered saline pH 7.2 (PBS) (Mediatech, Herndon Valley, Va.). The washed cell pellet was lysed in 2 ml RNAzol B (Tel-Test, Inc., Friendswood, Tex.). RNA was isolated by chloroform extraction, precipitated, and washed following the "RNAzol B isolation of RNA" protocol accompanying this product. RNA was then solubilized in H2 O, and the concentration and purity were determined by reading the absorbance at A260 nm and A280 nm. Finally, the RNA was reprecipitated in ethanol, overnight at -20° C.
cDNA Probes: Indoleamine 2,3-dioxygenase (IDO) cDNA was received from Sohan L. Gupta, Ph. D. (Hipple Cancer Research Center, Dayton, Ohio) (see Da., W. & Gupta, S. L. 168 Biochem. Biophys. Res. Commun. 1, 1990 and Hassanain, H. H. et al. 268 J. Biol. Chem. 5077, 1993). Glyceraldehyde-3-phosphate dehydrogenase (GAPD) cDNA was obtained through American Type Culture Collection (Rockville, Md.). These cDNA's were produced and purified using standard methods (see, Sambrook, Fritsch, Maniatis (1989) Molecular Cloning a Laboratory Manual/Second Edition 1, 1.21-1.24, 1.74-1.81, hereinafter in this Example, "Maniatis a") using Qiagen plasmid purification kits (Qiagen Inc., Chatsworth, Calif.). DNA concentration and purity were determined by absorbance at 280 nm and 260 nm. Specific DNA inserts were cut out by standard methods using restriction enzymes, and subsequently separated on agarose gels as in Maniatis (see, Sambrook, Fritsch, Maniatis (1989) Molecular Cloning a Laboratory Manual/Second Edition 1, 6.9-6.15, hereinafter in this Example, "Maniatis b"). cDNA probes were further purified for [^32 P] labeling using the Geneclean II DNA purification kit (BIO 101, Inc., La Jolla, Calif.). Probes were labeled with dCTP-α-^32 P (Amersham Corp., Arlington Heights, Ill.) by random primer labeling, using the Prime-a-GeneLabeling System (Promega Corp., Madison, Wis.).
Analysis and quantification of mRNA: IDO mRNA was detected by Northern blot analysis (see Maniatis a, p. 7.39-7.51) using standard methods. […] Quantification of IDO mRNA was carried out using a phosphorimager (Molecular Dynamics) in which density (i.e., amount of RNA) is expressed as relative phosphorimager units. […] GAPD mRNA measurement by phosphorimager quantification of Northern blots serves as a means to normalize for potential sample to sample differences in the amount of total RNA loaded on gels. […]

In a further assay the test system is AT-2 cells. Put plainly: Inhibition of Growth of Prostate Cancer Cell Line (MTS assay). The assay is classed as cell-based. The conditions noted are these: 72 h; 3 days, MTS; read-out: AT-2 cell growth IC50. On the procedure:
AT-2 cells are a prostate cancer cell sub-line derived from the Dunning H tumor, graciously provided to us by Dr. John Isaacs (John Hopkins, M. D.). Unlike the Dunning H tumor cells, AT-2 cells can be grown in vitro.
Methods: At-2 cells ([…]) were plated on tissue culture plastic in 96-well plates in the presence of RPMI-1640 medium containing 10% fetal calf serum, 250 nM dexamethasone, 2 mM glutamine, 1 mM sodium pyruvate, and penicillin/streptomycin antibiotics. The next day, compounds were added at 4 concentrations (10, 1, 0.1, 0.01 μM) to determine the approximate IC50 range. Cultures were assayed 3 days later for cell number using the MTS [(3-(4,5-dimethylthiazol-2-yl)-5-(3-carboxymethoxyphenyl)-2-(4-sulfophenyl)-2H-tetrazolium, inner salt)] assay. The MTS assay (purchased as a kit from Promega) measures the formation of an aqueous soluble formazan (detected by a plate reader at 490nm) produced by the bioreduction of a tetrazolium compound (MTS) in metabolically active cells via mitochondrial succinate dehydrogenase. After determining linearity of the substrate incubation time over a range of cell plating densities, the amount of product measured is directly proportional to cell number. MTS (333 ug/ml) and 25 μM phenazine methosulfate are mixed and added directly to the culture medium, and incubated at 37° C. in the 5% CO2 /95% air incubator for 0.5-4 h. Absorbance of the product at 490 nm is read on the BIO-TEK plate reader. Background values were obtained from wells containing culture medium with substrate solution, but no cells. In addition, values were also obtained from wells containing cells plated at day 0 and assayed on the day compound was added (day 1) in order to determine the number of cells at the time compound was added. After the initial dose-finding experiment was completed, subsequent experiments were set up so that there were 3 or more concentrations near the predicted IC50.
On the technique in general: Tetrazolium assays rely on reduction of a dye to a coloured formazan, in cell work by metabolically active cells.

The test system of a further assay is chick DRG neurons. Nature of the assay: DRG Neuron Survival Assay (calcein AM). The assay is classed as cell-based. To be noted: Gallus gallus, DRG neuron, 48 hours, read-out: Neuronal Survival (% of Control). On the procedure: Fused pyrrolocarbazoles promoted dorsal root ganglion (DRG) neuronal survival in cultures of chick DRG neurons. Cell survival was measured by uptake of calcein AM, an analog of the viable dye, fluorescein diacetate. Calcein is taken up by viable cells and cleaved intracellularly to fluorescent salts which are retained by intact membranes of viable cells. Microscopic counts of viable neurons correlate directly with relative fluorescence values obtained with the fluorimetric viability assay. This method thus provides a reliable and quantitive measurement of cell survival in the total cell population of a given culture (Bozyczko-Coyne et al., J. Neur. Meth. 50:205-216, 1993).
Methods: Dorsal root ganglia were dissected from embryonic age day 9 chick embryos and dissociated cells prepared by subsequent Dispase (neutral protease, Collaborative Research) dissociation. Neurons were seeded at low density (3×10^4 cells/cm^2) into 96 well poly-L-ornithine and laminin coated plates. Cells were cultured for 48 hours in serum-free N2 medium (Bottenstein and Sato, 1979) at 37° C. in a humidified atmosphere, 5% CO2 /95% air. Cell survival was assessed at 48 hours using the viable fluorimetric assay described above.

Assay [4] deals with lumbar motoneurons of chick embryos. Put plainly: Inhibition of Motoneuron Death In Ovo. In kind it is in vivo. To be noted: for Number of motoneurons mean ± SD / % of motoneurons rescued versus control: E6-E9; for Number of motoneurons mean ± SD: one side of spinal cord.
Experimental: The samples (50 ul) were applied to the vascularized chorioallantoic membrane through a window in the egg shell as previously described (Oppenheim et al., 1988). Embryos were sacrificed on E10 and spinal cords were removed, fixed in Carnoy's solution (10% acetic acid, 60% ethanol, 30% chloroform), embedded in paraffin, sectioned at 8 um, and stained with thionin as described previously (Oppenheim et al., 1988). Motoneurons (identified by morphology and position) were counted by an individual blind to the treatment conditions in every tenth section according to previously established criteria (Oppenheim et al., 1982, Oppenheim, 1986).

Chain of trkA tyrosine kinase (P04629 33-796): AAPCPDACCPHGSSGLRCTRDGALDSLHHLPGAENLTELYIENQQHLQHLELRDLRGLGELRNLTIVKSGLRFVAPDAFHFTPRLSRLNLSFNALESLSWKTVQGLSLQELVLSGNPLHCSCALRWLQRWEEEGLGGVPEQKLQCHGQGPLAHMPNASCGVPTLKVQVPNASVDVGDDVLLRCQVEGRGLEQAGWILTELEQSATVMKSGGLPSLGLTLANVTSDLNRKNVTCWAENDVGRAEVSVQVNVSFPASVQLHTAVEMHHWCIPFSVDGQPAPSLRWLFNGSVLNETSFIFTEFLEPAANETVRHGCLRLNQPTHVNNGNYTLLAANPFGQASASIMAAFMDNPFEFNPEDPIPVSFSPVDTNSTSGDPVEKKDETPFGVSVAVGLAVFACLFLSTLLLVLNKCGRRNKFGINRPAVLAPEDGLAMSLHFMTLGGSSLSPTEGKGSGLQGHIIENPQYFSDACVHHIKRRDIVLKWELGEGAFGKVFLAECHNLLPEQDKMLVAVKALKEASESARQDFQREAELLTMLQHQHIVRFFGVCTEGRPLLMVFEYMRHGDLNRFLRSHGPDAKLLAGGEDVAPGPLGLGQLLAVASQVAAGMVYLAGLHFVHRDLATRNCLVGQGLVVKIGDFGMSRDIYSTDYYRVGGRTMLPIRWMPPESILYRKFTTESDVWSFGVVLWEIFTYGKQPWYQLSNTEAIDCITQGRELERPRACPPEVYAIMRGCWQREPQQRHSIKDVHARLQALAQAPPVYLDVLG
Experimental for trkA tyrosine kinase: These compounds were then tested for the ability to inhibit substrate phosphorylation by the trkA tyrosine kinase.
Plates were washed three times with TBST, followed by two washes with TBS (TBST sans Tween-20). Fused pyrrolocarbazoles were then added at various concentrations to a reaction mixture (50 mM HEPES, pH 7.4, 5 mM MnCl2, 5 mM MgCl2, 140 mM NaCl, 16 μM ATP, and 15 ng trkA in a total volume of 1001 μL.). As a negative control, 100 mM EDTA was included in the reaction solution. The plates were then incubated at 37° C. for 15 min. The detection antibody, monoclonal anti-phosphotyrosine antibody (UBI), was added at a dilution of 1:2000 in TBST, and incubated for 1 hour at 37° C. Plates were then washed three times with TBST, followed by a 1 hour incubation at 37° C. with alkaline phosphatase-labeled goat anti-mouse IgG (1:2000 in TBST (Bio-Rad)). After washing three times with TBST followed by two washes with TBS, a colored product was produced by using NADPH as substrate for alkaline phosphatase, and the coupled reactions of diaphorase and alcohol dehydrogenase (GIBCO-BRL ELISA amplification system). The colored product was read at 490 nm in a microplate reader (Biotek).

In the case of `O=C1NCc2c1c1c(c3c2c2ccccc2n3CCO)Cc2ccccc2-1` [Compound I-29, 13-(2-Hydroxyethyl)-5H,6H,12H,13H-indeno[2,3-a]pyrrolo[3,4-c]carbazole-7(7H)one], in assay [1], the “Spinal Cord ChAT Activity, % of Control, untreated cultures” value (“Spinal Cord ChAT Activity, % of Control” for short) is 154 % of Control. In addition, in assay [2] (100 nM), the activity at 0.1 µM amounted to 140%. Also, in assay [2] (250 nM), the activity at 0.25 µM came to 189%. Besides, the activity at 0.5 µM in assay [2] (500 nM) is 194%. In addition, the activity at 1 µM in assay [2] (1000 nM) is 210%. The IC50 against protein kinase C was 40 nM; on trkA tyrosine kinase it was 18.4 nM; in the assay with AT-2 cells it was 3260 nM. Also, in assay [3] (compound 200 nM, IFNγ 200 units/ml), the mrna remaining at 0.2 µM is 57%.

Consider `O=C1NCc2c1c1c(c3[nH]c4ccc(Br)cc4c23)Cc2ccccc2-1` [Compound I-9, 3-Bromo-5H, 6H, 12H, 13H-indeno[2,3-a]pyrrolo[3,4-c]carbazole-7(7H)one], for which the “Spinal Cord ChAT Activity, % of Control” value in assay [1] is reported as 185 % of Control. At protein kinase C, this compound showed an IC50 of 4500 nM. For the same compound, the mrna remaining at 0.4 µM in assay [3] is 60%.

With `O=C1NCc2c3c(c4[nH]c5ccc(Br)cc5c4c21)Cc1ccccc1-3` [Compound I-11, 3-Bromo-6H, 7H, 12H, 13H -indeno[2,3-a]pyrrolo[3,4-carbazole-5(5H)one], the “Spinal Cord ChAT Activity, % of Control” value in assay [1] was 188 % of Control. This compound came in with an IC50 on protein kinase C of 450 nM. The mrna remaining at 0.4 µM in assay [3] amounted to 49%.

In the case of `O=C1NCc2c1c1c(c3[nH]c4ccc(C=Cc5ccccn5)cc4c23)Cc2ccccc2-1` [Compound I-32, 3-(2-Pyridinylethenyl)-5H,6H,12H,13H-indeno[2,3-a]pyrrolo[3,4-c]carbazole-7(7H)-one], in assay [1], the “Spinal Cord ChAT Activity, % of Control” value is on record as 288 % of Control. Moreover, the viability at 0.1 µM with chick DRG neurons (100 nM) is 173%. Moreover, the viability at 0.25 µM with chick DRG neurons (250 nM) was 164%. Besides, the viability at 0.5 µM in the assay with chick DRG neurons (500 nM) was 151%. Further, on trkA tyrosine kinase, the IC50 was greater than 1000 nM. Also, the mrna remaining at 0.4 µM in assay [3] worked out at 70%. For the same compound, the “Number of motoneurons mean ± SD” value in assay [4] (0.06 ug/egg daily) worked out at 9657 ± 529; in assay [4] (0.3 ug/egg daily), 10215 ± 481; in assay [4] (0.6 ug/egg daily), 12357 ± 499; in assay [4] (1.2 ug/egg daily), 11743 ± 1497. Further, the “% of motoneurons rescued versus control” value came out at 8% in assay [4] (0.3 ug/egg daily), 31% in assay [4] (0.6 ug/egg daily) and 24% in assay [4] (1.2 ug/egg daily). Further, the “increase in motoneuron survival in treated vs. control embryos, maximal effect” value in assay [4] (0.6 ug/egg, vehicle-treated control) turned out to be 31%. Besides, the “dose at which the maximal effect was achieved” value in assay [4] (daily dose) is 0.6 ug/egg.
